Reference: article PMC7156724, “Potent BRD4 inhibitor suppresses cancer cell-macrophage interaction” (Nature Communications, 2020)
Values joined by “and” are separate entries in the source; they are usually repeats but may differ in a detail not shown here. Equal entries are not always repeated. Where two headings read alike, the source gives them in different places.

Tests used:
MDA-MB231 cells = assay: MTT cell growth assay, MDA-MB231; format: cell-based, human; conditions: 5 days
Description: Fig. 2 NHWD-870 inhibited BRD4 phosphorylation and c-MYC expression, and suppressed cell growth. a Representative western blot analysis of p-BRD4 (s484/488), BRD4, c-MYC, and GAPDH after treatment of MDA-MB231, SUM159, A2780 ES-2, and H526 cells with JQ-1 or NHWD-870 at the indicated concentrations for 24 h. GAPDH served as the loading control. Selected from three independent experiments. b MTT assays of H526, A2780, ES-2, and MDA-MB231 cells treated with JQ-1 or NHWD-870 at the indicated concentrations for 5 days. Data are presented as mean ± SEM from three independent experiments. c, d Clonogenic assays of H526, A2780, ES-2 and MDA-MB231 cells treated with 250 nM JQ-1 or NHWD-870 for 5 days. Shown are representative images (c) and quantification of colonies (d). […] Shown are representative images (e) and quantification of relative colony sizes (f). Scale bar, 50 μm. Data are presented as mean ± SEM from five independent experiments. p values were calculated using two-tailed, unpaired t tests in this figure. **p < 0.01; ***p < 0.001. Source data are provided as a Source Data file.
37℃, 5% CO2. […]

[1] = Concentration in lungs and tumors of H526 xenograft model; format: in vivo, mouse; conditions: for concentration at 8 h / concentration at 24 h: female, BALB/c nude, mouse, oral
From the text: Supplementary Figure 7. Pharmacokinetic profile of NHWD-870 using mouse and rat models. […]
98615821 on day 21. These mice were administrated the indicated drug daily for 21 days. Data are represented as mean ± SEM of 3 independent experiments. Source data are provided as a Source Data file. […]
9. In vivo pharmacokinetics study. Mouse and SD rat models were used to evaluate pharmacokinetic property of NHWD-870. NHWD-870 was administrated […]
Concentration of drugs in plasma, lung and tumor tissues were measured for the indicated time. […]

TAMs = assay: 3D Matrigel culture of TAMs, direct treatment; format: cell-based, mouse
Description: CD45^+CD11b^+F4/80^+ TAMs were isolated from peritoneal metastasis of A2780 tumor-bearing mice and cultured in RPMI-1640 supplemented with 10% FBS, 1% penicillin/streptomycin, and 0–50 ng/ml CSF1 (R&D Systems) as indicated according to standard protocols. In the cancer cell-macrophage co-culture experiments, CSF1 was not added. In the transwell (Corning, pore size, 0.4 μm) co-culture experiments, tumor cells were placed into the upper chamber, and TAMs were seeded into the lower chamber.
Single clone spheroids were generated by culturing A2780, ES-2, H526 and MDA-MB231 cells for 16 h as a hanging drop over a humidified plate in a CO2 incubator in their corresponding complete media. […] The relative spheroid sizes were measured with ImageJ version 1.52s using the 15 representative spheroids. […]
with anti-CD45, CD11b and CD206 followed by FACS analysis. Shown are representative FACS plots (c) and quantification of the percentage of CD11b+CD206+ cells (d). Data are presented as mean ± SEM from 5 different mice. p values were calculated using two-tailed, unpaired t tests. **, p<0.01; ***, p<0.001. […] Quantification of spheroid volumes (f). Data are presented as mean ± SEM from 15 independent experiments. p values were calculated using two-tailed, unpaired t tests. **, p<0.01. […]

## Cc1nnn(C)c1-c1cnc2c3c4cnn(C)c4ccc3n([C@H](c3ccccc3)C3CCOCC3)c2c1 [NHWD-870]
MDA-MB231 cells; MDA-MB231, 0.1 nM
  MTT assay, relative cell number: 0.965 and 0.95 and 0.937
MDA-MB231 cells; MDA-MB231, 1 nM
  MTT assay, relative cell number: 0.701 and 0.703 and 0.725
MDA-MB231 cells; MDA-MB231, 10 nM
  MTT assay, relative cell number: 0.368 and 0.306 and 0.338
MDA-MB231 cells; MDA-MB231, 100 nM
  MTT assay, relative cell number: 0.083 and 0.065 and 0.074
MDA-MB231 cells; MDA-MB231, 500 nM
  MTT assay, relative cell number: 0
MDA-MB231 cells; MDA-MB231, 1000 nM
  MTT assay, relative cell number: 0
MDA-MB231 cells; MDA-MB231, 5000 nM
  MTT assay, relative cell number: 0
MDA-MB231 cells; MDA-MB231, 10000 nM
  MTT assay, relative cell number: 0
[1]; Group 2, 3 mg/kg QD, 8h, individual animals
  Analyte Concentration in Tumor Homogenate: 51.4 ng/mL and 12.9 ng/mL and 16.6 ng/mL
[1]; Group 2, 3 mg/kg QD, 8h, individual animals, LLOQ 1 ng/mL
  Analyte Concentration in Lung Homogenate: 13.8 ng/mL and 4.51 ng/mL and 8.51 ng/mL
[1]; Group 2, 3 mg/kg QD, 8h, individual animals, LLOQ 10 ng/g
  Analyte Concentration in Lung: 138 ng/g and 45.1 ng/g and 85.1 ng/g
[1]; Group 2, 3 mg/kg QD, 8h, individual animals, dilution factor 10
  Analyte Concentration in Tumor: 514 ng/g and 129 ng/g and 166 ng/g
[1]; Group 2, 3 mg/kg QD, 24h, individual animals
  Analyte Concentration in Tumor Homogenate: 3.37 ng/mL and 2.3 ng/mL and 5.48 ng/mL
[1]; Group 2, 3 mg/kg QD, 24h, individual animals, LLOQ 1 ng/mL
  Analyte Concentration in Lung Homogenate: BQL
[1]; Group 2, 3 mg/kg QD, 24h, individual animals, LLOQ 10 ng/g
  Analyte Concentration in Lung: BQL
[1]; Group 2, 3 mg/kg QD, 24h, individual animals, dilution factor 10
  Analyte Concentration in Tumor: 33.7 ng/g and 23 ng/g and 54.8 ng/g
[1]; Group 3, 1.5 mg/kg QD, 8h, individual animals
  Analyte Concentration in Tumor Homogenate: 19.2 ng/mL and 22.1 ng/mL
[1]; Group 3, 1.5 mg/kg QD, 8h, individual animals, LLOQ 1 ng/mL
  Analyte Concentration in Lung Homogenate: 6.31 ng/mL and 9.86 ng/mL
[1]; Group 3, 1.5 mg/kg QD, 8h, individual animals, LLOQ 10 ng/g
  Analyte Concentration in Lung: 63.1 ng/g and 98.6 ng/g
[1]; Group 3, 1.5 mg/kg QD, 8h, individual animals, dilution factor 10
  Analyte Concentration in Tumor: 192 ng/g and 221 ng/g
[1]; Group 3, 1.5 mg/kg QD, 24h, individual animals
  Analyte Concentration in Tumor Homogenate: 2.34 ng/mL and 1.67 ng/mL
[1]; Group 3, 1.5 mg/kg QD, 24h, individual animals, LLOQ 1 ng/mL
  Analyte Concentration in Lung Homogenate: BQL
[1]; Group 3, 1.5 mg/kg QD, 24h, individual animals, LLOQ 10 ng/g
  Analyte Concentration in Lung: BQL
[1]; Group 3, 1.5 mg/kg QD, 24h, individual animals, dilution factor 10
  Analyte Concentration in Tumor: 23.4 ng/g and 16.7 ng/g
[1]; Group 4, 3 mg/kg Q2D, 8h, individual animals
  Analyte Concentration in Tumor Homogenate: 82.3 ng/mL and 21.5 ng/mL and 23.8 ng/mL
[1]; Group 4, 3 mg/kg Q2D, 8h, individual animals, LLOQ 1 ng/mL
  Analyte Concentration in Lung Homogenate: 49.2 ng/mL and 8.34 ng/mL and 15.8 ng/mL
[1]; Group 4, 3 mg/kg Q2D, 8h, individual animals, LLOQ 10 ng/g
  Analyte Concentration in Lung: 492 ng/g and 83.4 ng/g and 158 ng/g
[1]; Group 4, 3 mg/kg Q2D, 8h, individual animals, dilution factor 10
  Analyte Concentration in Tumor: 823 ng/g and 215 ng/g and 238 ng/g
[1]; Group 4, 3 mg/kg Q2D, 24h, individual animals
  Analyte Concentration in Tumor Homogenate: 6.96 ng/mL and 4.06 ng/mL and 14.6 ng/mL
[1]; Group 4, 3 mg/kg Q2D, 24h, individual animals, LLOQ 1 ng/mL
  Analyte Concentration in Lung Homogenate: 6.96 ng/mL and BQL and 2.42 ng/mL
[1]; Group 4, 3 mg/kg Q2D, 24h, individual animals, LLOQ 10 ng/g
  Analyte Concentration in Lung: 69.6 ng/g and BQL and 24.2 ng/g
[1]; Group 4, 3 mg/kg Q2D, 24h, individual animals, dilution factor 10
  Analyte Concentration in Tumor: 69.6 ng/g and 40.6 ng/g and 146 ng/g
[1]; H526 xenograft model, oral 3 mg/kg daily for 21 days
  penetration into the lungs and SCLC tumors: good penetration into the lungs and SCLC tumors
[1]; lung homogenate, 1.5 mg/kg, Group 3, 1.5 mg/kg QD, 8h, individual animals, LLOQ 1 ng/mL, read-out: Analyte Concentration in Lung Homogenate
  concentration at 8 h: 5.65 ng/mL
[1]; lung homogenate, 3 mg/kg, Group 2, 3 mg/kg QD, 24h, individual animals, LLOQ 1 ng/mL, read-out: Analyte Concentration in Lung Homogenate
  concentration at 24 h: 1.12 ng/mL
[1]; lung, 1.5 mg/kg, Group 3, 1.5 mg/kg QD, 8h, individual animals, LLOQ 10 ng/g, read-out: Analyte Concentration in Lung
  concentration at 8 h: 56.5 ng/g
[1]; lung, 1.5 mg/kg, Group 3, 1.5 mg/kg QD, 8h, mean, read-out: Mean Concentration in Lung
  concentration at 8 h: 72.7 ng/g
[1]; lung, 3 mg/kg, Group 2, 3 mg/kg QD, 8h, mean, read-out: Mean Concentration in Lung
  concentration at 8 h: 89.4 ng/g
[1]; lung, 3 mg/kg, Group 2, 3 mg/kg QD, 24h, individual animals, LLOQ 10 ng/g, read-out: Analyte Concentration in Lung
  concentration at 24 h: 11.2 ng/g
[1]; lung, 3 mg/kg, Group 4, 3 mg/kg Q2D, 8h, mean, read-out: Mean Concentration in Lung
  concentration at 8 h: 244 ng/g
[1]; lung, 3 mg/kg, Group 4, 3 mg/kg Q2D, 24h, mean, read-out: Mean Concentration in Lung
  concentration at 24 h: 46.9 ng/g
[1]; tumor homogenate, 1.5 mg/kg, Group 3, 1.5 mg/kg QD, 8h, individual animals, read-out: Analyte Concentration in Tumor Homogenate
  concentration at 8 h: 14.3 ng/mL
[1]; tumor homogenate, 1.5 mg/kg, Group 3, 1.5 mg/kg QD, 24h, individual animals, read-out: Analyte Concentration in Tumor Homogenate
  concentration at 24 h: 2.06 ng/mL
[1]; tumor, 1.5 mg/kg, Group 3, 1.5 mg/kg QD, 8h, individual animals, dilution factor 10, read-out: Analyte Concentration in Tumor
  concentration at 8 h: 143 ng/g
[1]; tumor, 1.5 mg/kg, Group 3, 1.5 mg/kg QD, 8h, mean, read-out: Mean Concentration in Tumor
  concentration at 8 h: 185 ng/g
[1]; tumor, 1.5 mg/kg, Group 3, 1.5 mg/kg QD, 24h, individual animals, dilution factor 10, read-out: Analyte Concentration in Tumor
  concentration at 24 h: 20.6 ng/g
[1]; tumor, 1.5 mg/kg, Group 3, 1.5 mg/kg QD, 24h, mean, read-out: Mean Concentration in Tumor
  concentration at 24 h: 20.2 ng/g
[1]; tumor, 3 mg/kg, Group 2, 3 mg/kg QD, 8h, mean, read-out: Mean Concentration in Tumor
  concentration at 8 h: 270 ng/g
[1]; tumor, 3 mg/kg, Group 2, 3 mg/kg QD, 24h, mean, read-out: Mean Concentration in Tumor
  concentration at 24 h: 37.2 ng/g
[1]; tumor, 3 mg/kg, Group 4, 3 mg/kg Q2D, 8h, mean, read-out: Mean Concentration in Tumor
  concentration at 8 h: 425 ng/g
[1]; tumor, 3 mg/kg, Group 4, 3 mg/kg Q2D, 24h, mean, read-out: Mean Concentration in Tumor
  concentration at 24 h: 85.4 ng/g
TAMs
  fold inhibition of colony size of macrophages: < 2 fold
TAMs; 100 nM
  decrease of the ability of TAMs to form colonies in a 3D culture system: < 50%
